# Several values for one entry are separate records, joined by “and”; a condition that tells them apart may be missing. Equal values may be shown once.
# What was measured:
# Format in all cases: in vivo, human
# [1] = system: patients with prior clomiphene citrate failures; experiment: Toronto insemination cycles after DHEA (reported study); settings: DHEA pregnancies, insemination cycles with clomiphene citrate/letrozole and FSH
# Experimental: In cooperation with Robert F Casper's group at Toronto's Mount Sinai Hospital, they recently reported on 47 patients with prior clomiphene citrate failures who were supplemented with 75 mg daily of DHEA for at least 60 days prior to inseminations, with stimulation by either clomiphene citrate or letrozole in combination with FSH. Controls were 46 women, matched by age and baseline FSH without DHEA supplementation.
# The possibility of synergistic gonadotropin and DHEA effects is supported by reanalysis of the Toronto groups' previously noted insemination cycles, stimulated with a clomiphene citrate/letrozole and FSH protocols. […] Final conclusions await, however, further investigations.
# [2] = system: women waiting to go into an IVF cycle; experiment: Spontaneous conceptions in women on DHEA waiting to go into IVF
# Experimental: Additionally, with DHEA treatment, there may be an unexpectedly large number of spontaneous conceptions in women waiting to go into an IVF cycle. DHEA treatment includes administering a dose of between about 50 mg/day and about 100 mg/day, preferably between about 60 mg/day and about 80 mg/day, and in one study about 75 mg/day to a human. Particularly, the DHEA treatment may be administered to a premenopausal person with diminished ovarian function. DHEA may have an effect after about 4 consecutive weeks. However, DHEA has a more significant effect after about 8 weeks or about 2 months of administration, but its effect may continue to increase to about four months, and further may continue past four months of use. Specifically, DHEA treatment has a statistically significant effect after about at least 16 weeks or about at least 4 months of administration.
# The DHEA treatment may be at least about 2 weeks before spontaneous conception occurs. In the population of women who are waiting to go into IVF, the spontaneous pregnancy rate is a fraction of about 1% per month. However, in the population of women who have been on DHEA treatment, there were 13 spontaneous pregnancies out of 60 women. As such, DHEA treatment increases spontaneous pregnancies in one study at least about 21 fold. […]
# [3] = system: women with diminished ovarian function; experiment: Case control study of clinical pregnancy with DHEA supplementation (Example 7)
# Experimental: A case control study of 190 women over 30 years old with diminished ovarian function were studied between 1999 and December 2005. The study group included 89 patients with a mean age of about 41.6 who used supplementation of about 75 mg daily of oral, micronized DHEA for up to four months prior to entry into IVF. […] The primary outcome was clinical pregnancy after the patient's initial visit.
# (§1) Ovarian stimulation was identical for study and control groups and consisted of microdose agonist flare, followed by maximal dosage gonadotropin stimulation, using about 300-450 IU of FSH and about 150 IU of HMG. Study patients received DHEA continuously until a positive pregnancy test was obtained or until the patient dropped out of treatment.
# In an additional study, a retrospective analysis of a 190 women with diminished ovarian function above 30 years old, who were treated between 1999 and December 2005 was completed to assess the impact of DHEA supplementation on the time interval to the establishment of pregnancy.
# A prequalification for each patient's diagnosis of diminished ovarian function was either a sub-diagnosis of premature ovarian aging (POA) or a sub-diagnosis of diminished ovarian reserve (DOR). POA was, in turn, defined as baseline follicle stimulating hormone (b-FSH), on Day 2/3 of a cycle as <12 mIU/ml, but exceeding the 95% CI of the mean value for the patient's age group.
# Specifically, this meant b-FSH≧7.4 mIU/ml at age 30-34 years and ≧8.6 mIU/ml at age≧35 years. DOR, in turn, was defined as b-FSH≧12 mIU/ml and/or a baseline estradiol level≧75 pg/ml. 49 patients were confirmed with POA and 52 patients were confirmed with DOR, creating a control group of 101 women. Because of potential impending loss of ovarian function in the control group women, the control group women were treated with IVF as soon as possible.
# During the time studied, the study group consisted of 89 patients, with diminished ovarian function (POA 24, DOR 65). Each person in the study group was placed on DHEA supplementation. The DHEA supplementation included administering about 25 mg of (pharmaceutical grade) micronized DHEA, three times daily, for up to about four months (mean 3.8±0.3 months). […] This delay of IVF treatment allowed the possibility of spontaneously conceived pregnancies.
# as §1, with “comprised” for “consisted of”, “treatment. DHEA and DHEAS levels were monitored monthly, and patients were interviewed at each visit about adverse reactions to DHEA supplementation.” for “treatment.”
# In order to assess the impact of DHEA supplementation on time interval to the establishment of pregnancy, this study was designed as a life-table analysis, measuring not only total pregnancy rates but also the time between initial presentation and end of last treatment intervention.
# Each recorded clinical pregnancy, defined as positive fetal cardiac activity on ultrasound examination after 6 weeks, was recorded as a positive outcome. Patients who continued treatments beyond the study period or stopped treatments were considered right censored data at the end of the study period, or at treatment cessation, respectively.
# A Cox regression analysis was used to evaluate time-to-event. The model that we used stratified for level of ovarian reserve (POA and DOR) and adjusted for age, day 3 FSH, fertility treatments (none, Intrauterine Insemination and controlled ovarian hyperstimulation (IUI/COH), or IVF) and race/ethnicity. A trend in pregnancy rates over months of DHEA exposure with an interaction term for time and DHEA months of exposure was tested. SPSS for Windows, Standard version 10.0.7 (SPSS Co. Chicago, Ill.) was utilized for data analysis. Continuous outcomes are presented as mean±1 standard error. […]
# [4] = DHEA group, intrauterine insemination, no IVF
# [5] = DHEA group, no other treatment than DHEA
compound,measurement,setting,value
"C[C@]12CC[C@H](O)CC1=CC[C@@H]1[C@@H]2CC[C@]2(C)C(=O)CC[C@@H]12 [DHEA, Dehydroepiandrosterone]",miscarriage rate (calculated on reanalysis),[1],28.5%
same,increase of spontaneous pregnancies,[2]; versus fraction of about 1% per month in women waiting for IVF,at least 21 fold
same,spontaneous pregnancies out of 60 women,[2]; women on DHEA treatment,13
same,proportional hazards ratio for clinical pregnancy relative to controls (HR),"[3]; Cox regression, 95% CI 1.2 to 11.8",3.8
same,Implantation (FH/Embryos trans),[3]; DHEA group,(11.4%)
same,Implantation (FH/Embryos trans) (n/N),[3]; DHEA group,13/101
same,Miscarriage (Per clinical Pregnancy) (n/N),[3]; DHEA group,5 of 25 and 5/25
same,Normal Day 3 embryos,[3]; DHEA group,2.4±0.03 and 2.4 ± 0.3
same,Oocytes,[3]; DHEA group,3.9 ± 0.4
same,Positive hCG (>25 mIU/ml),[3]; DHEA group,(30%)
same,Positive hCG (>25 mIU/ml) (n/N),[3]; DHEA group,26/88
same,Transferred embryos,[3]; DHEA group,2.1±0.2
same,pregnancies established spontaneously (no IVF treatment) out of the 25,[3]; DHEA group,12
same,Clinical Pregnancy (n/N),"[3]; DHEA group, all 89 patients",25 of 89 and 25/89
same,"Clinical Pregnancy, IUI/COH",[3]; [4],(66.7%)
same,"Clinical Pregnancy, IUI/COH (n/N)",[3]; [4],6 of 9 and 6/9
same,"Clinical Pregnancy, No Treatment",[3]; [5],(35.3%)
same,"Clinical Pregnancy, No Treatment (n/N)",[3]; [5],6 of 16 and 6/16
same,"Clinical Pregnancy, IVF (n/N)","[3]; DHEA group, patients reaching IVF",13/64
same,Cancellation (IVF) (n/N),"[3]; DHEA group, about 25 mg three times daily, 3.8 ± 0.3 months",9/63
same,decrease of the miscarriage rate,[3]; DHEA versus control,about 44%
same,increase of the percentage of clinical pregnancies,[3]; DHEA versus control,about 157%
same,mean DHEA and DHEAS levels at cycle day 2,[3]; approximately two months after initiation of treatment,in the low normal ranges
same,"proportional hazards estimation of pregnancy (HR), extended Cox models","[3]; correction for time dependent variables, 95% CI 1.6 to 14.2",4.8

# — patent US9375436B2, “Androgen treatment in females” (priority 2004, dated 2016)
